Data set [1] can be described thus: DOX encapsulation in nanoemulsions with or without Lipo-HD, absorption spectra after dialysis (Example 1). Type of data set: physicochemical. The following applies: for loading: after dialysis; for retention inside nanoemulsions after dialysis: dialysis in 0.1M NaHCO3 for 12h. Here is the method:
The compound Lipo-HD was dissolved firstly into the oil Labrafac® at 10 wt%. Then 65 mg of surfactant Solutol was added to 35 mg of above solution. The mixture was homogenized under magnetic stirring at 90°C for 10 min up to complete homogenisation. Finally, nanoemulsions were generated with the addition of ultrapure (Milli-Q) water (230 mg). The size of nanoemulsions could be monitored by the variation of the ratio between oil (labrafac) and surfactant (solutol). For fluorescence studies, 0.5 wt% of a donor dye […] is added respectively to Labrafac® containing or not 10 wt% of Lipo-HD. Then the nanoemulsions were prepared as described above. […] was used for monitoring the encapsulation, release and stability of the nanoemulsion by looking on the intensity variation between […] and DOX. […] To those solutions, […] of DOX-HCl (30 mM) was added. The mixtures were vortexes for 12 h at 37 °C. The Scheme of synthesis is illustrated in figure 1. The resulting solutions were dialyzed in 500 mL of 0.1M NaHCO3 for 12h. Absorption spectra were recorded on a Cary® spectrophotometer (Varian) according to conventional measurement method.

Data set [2] relates to 4T1. Description: MTS cytotoxicity assay in cell culture. Format: cell-based, mouse. The conditions noted are these: 4T1 cells, 48h incubation, prodrugs loaded in nanoemulsion, free drugs without nanoemulsion. Here is the method: (§1) The MTS assay is based on the reduction of the MTS tetrazolium compound by viable mammalian cells (here, by tumor cells) to generate a colored formazan dye that is soluble in cell culture media. The formazan dye is quantified by measuring the absorbance at 490-500 nm. […] After 24h, the medium was removed and replaced by drug-containing (LipoHD-DOX nanoemulsion or DOX alone) medium. After 48h, the medium was removed and replaced with MTS-containing medium (0,5 mg/ml). After 4h of incubation, the medium was removed, replaced with 100µl of DMSO (agitation, 20 min) and the absorbance was read at 570 nm.
In general terms: Formazan colour is commonly taken as a measure of viable cells.

Data set [3] deals with MDA-MB-231. Put plainly: MTS cytotoxicity assay in cell culture. Format: cell-based, Human. The following applies: MDA-MB-231 cells, 48h incubation, prodrugs loaded in nanoemulsion, free drugs without nanoemulsion. Here is the method: as §1
Data set [4] has as its system Jimt1. Description: MTS cytotoxicity assay in cell culture. Type of data set: cell-based, Human. The conditions noted are these: Jimt1 cells, 48h incubation, prodrugs loaded in nanoemulsion, free drugs without nanoemulsion. Here is the method: as §1
A short description of data set [5]: Storage stability of nanoemulsions (absorption spectra, precipitation) after 4 days. Format: physicochemical. The following applies: for change of absorption spectra on storage: nanoemulsions of the compound reacted with DOX, after 4 days storage at 4°C. How it is done:
• Figure 1: Scheme of synthesis of DOX/Lipo-HD conjugate in situ inside lipid nanoemulsions. • Figure 2A: Absorption spectra of 100 timed diluted nanoemulsions containing reference dye F888 and with Lipo-HD alone (F888-Lipo-HD), of 100 timed diluted nanoemulsions with Lipo-HD after incubation with DOX (F888-Lipo-HD-DOX), and of nanoemulsions encapsulating F888-Lipo-HD-DOX and further dialysis (F888-Lipo-HD-DOX after dialysis). Reference dye F888 was encapsulated at 0.5 wt% of with respect to Labrafac oil. Lipo-HD was encapsulated at 10 wt%. • Figure 2B: Absorption spectra of 100 timed diluted nanoemulsions containing F888 but without Lipo-HD (F888), of 100 times diluted nanoemulsions containing F888 after incubation with DOX (F888-DOX), and of nanoemulsion encapsulating F888-DOX further dialysis (F888-DOX after dialysis). […] Reference dye F888 was encapsulated at 0.5 wt%. • Figure 4A: Fluorescence spectra of nanoemulsions encapsulating 0.5 wt% of donor dye F888 with 10 wt% of Lipo-HD (F888-Lipo-HD) or without Lipo-HD (F888). • Figure 4B: Fluorescence spectra of nanoemulsions with Lipo-HD incubated with DOX and then dialyzed (F888-Lipo-HD-DOX), of nanoemulsions without Lipo-HD incubated with DOX and then dialyzed (F888-DOX), and of nanoemulsions containing F888 alone (F888). […] All fluorescence spectra were corrected from the blank. • Figures 5A, 5B: Fluorescence spectra of F888-Lipo-HD-DOX nanoemulsions (5000-fold dilution) in the presence of blank nanoemulsions (50-fold dilution) at pH 7.4 (Fig. 5A) and 4.0 (Fig. 5B). […] All fluorescence spectra were corrected from the blank. • Figures 5C: Fluorescence intensity ratio donor/acceptor as a function of incubation time for pH 7.4 and 4.0 (Fig. 5C). • Figure 6A, 6B: Absorption spectra of four nanoemulsions containing respectively a compound of formula I'a, where R1 and R2 are butyl (C4)-alkyl chains, or octyl (C8)-alkyl chains, or octadecyl (C18)-alkyl chains, or R1 is a single C18 alkyl-chain, while R2 = H (C18 mono chain). […]

Data set [6] can be described thus: Size distribution of nanoemulsions by dynamic light scattering. The following applies: nanoemulsion with the compound at 5 wt% in Labrafac, Cremophore, reacted with doxorubicin (Example 2). Type of data set: physicochemical. Here is the method:
The compound Lipo-HD was dissolved firstly into the oil Labrafac® at 10 wt%. Then 65 mg of surfactant Solutol was added to 35 mg of above solution. The mixture was homogenized under magnetic stirring at 90°C for 10 min up to complete homogenisation. Finally, nanoemulsions were generated with the addition of ultrapure (Milli-Q) water (230 mg). The size of nanoemulsions could be monitored by the variation of the ratio between oil (labrafac) and surfactant (solutol).
Size distributions were determined by dynamic light scattering using Zetasizer Nano ZSP (Malvern Instruments S.A).
(§2) Corresponding compounds of formula II'a were respectively dissolved first into the oil Labrafac® at 5 wt%. Then 45 mg of surfactant Cremophore ® was added to 55 mg of above solution. The mixture was homogenized under magnetic stirring at 40°C for 10 min up to complete homogenisation. Finally, nanoemulsions were generated with the addition of phosphate buffered saline (230 mg).

Data set [7] is described as follows: Doxorubicin loading of nanoemulsions containing compounds of formula II'a (Example 2). The conditions noted are these: nanoemulsion with the compound at 5 wt% in Labrafac, Cremophore, reacted with doxorubicin at pH 4, 37°C, 24h, then dialysed 24h and centrifuged. Type of data set: physicochemical. How it is done: as §2
300 µl of the obtained nanoemulsion encapsulating the compound of formula II'a were diluted into 300 µl of 20 mM acetate buffer (pH=4), and then 50 µl of 30 mM solution of doxorubicin in DMSO was added. The mixture was reacted under shaking at 37°C during 24h.
After the reaction, the sample was dialysed for 24h at NaHCO3 buffer (0.1 M) at pH8 and then centrifugation at 6000 rpm for 1 minute was carried out.

The structures appear in SMILES notation.

With `COc1cccc2c1C(=O)c1c(O)c3c(c(O)c1C2=O)C[C@@](O)(C(=O)CO)C[C@@H]3O[C@H]1C[C@H](N)[C@H](O)[C@H](C)O1` [DOX, doxorubicin, reference compound], in data set [1] (DOX loading of nanoemulsion without Lipo-HD), the loading was less than 0.06%. The “retention inside nanoemulsions after dialysis” value in data set [1] is reported as “leaked out”. The Cytotoxicity result in data set [2], in data set [3] and in data set [4] was “dose-dependent cytotoxicity” each time.

Take `CCCCCCCCCCCCCCCCCCN(CCCCCCCCCCCCCCCCCC)C(=O)CCC(=O)NN` [Lipo-HD, 3-(hydrazinecarbonyl)-N,N-dioctadecylpropanamide]: in data set [1] (DOX loading with respect to labrafac oil, nanoemulsion with 10 wt% Lipo-HD, calculated with extinction coefficient of DOX 12 200 M^-1cm^-1), the loading is 1.6 wt%. In data set [5], the “change of absorption spectra on storage” value is reported as “minimal changes”. In addition, in data set [6], the PDI came to 0.118 and the “Size (nm)” value is reported as 99nm. Moreover, in data set [7], the “Encapsulation loading (%)” value is given as 1.58% and the “loading efficiency (%)” value amounted to 55%.

As to `CCCCCCCCCCCCCCCCCCNC(=O)CCC(=O)NN` [Lipo-HD-C18], the precipitation of nanoemulsion result in data set [5] (nanoemulsion of the compound reacted with DOX, 4 days after preparation) was “signs of precipitation”. In addition, the “change of absorption spectra on storage” value in data set [5] was “strong loss of absorbance”. In data set [6], the PDI came to 0.132 and the “Size (nm)” value worked out at 104nm. Moreover, in data set [7], the “Encapsulation loading (%)” value is recorded as 0.68% and the “loading efficiency (%)” value was 21%.

Regarding `CCCCCCCCCCCCCCCCCCN(CCCCCCCCCCCCCCCCCC)C(=O)CCC(=O)NN=C(CO)C1(O)Cc2c(O)c3c(c(O)c2C(OC2CC(N)C(O)C(C)O2)C1)C(=O)c1c(OC)cccc1C3=O` (stereo not shown) [Lipo-HD-DOX], the solubility in oil result in data set [1] (conjugate formed in situ in nanoemulsion, compared with DOX alone) was “much better soluble in oil than DOX alone”. Besides, in data set [1], the “retention inside nanoemulsions after dialysis” value is reported as “remain inside nanoemulsions after dialysis”. The Cytotoxicity entry in data set [2] is on record as “similarly”; in data set [3] it was “higher toxicity”; in data set [4], “higher toxicity”.

For the compound `CCCCCCCCCCCCCCCCCCN(CCCCCCCCCCCCCCCCCC)C(=O)CCC(=O)Nc1ccn([C@@H]2O[C@H](CO)[C@@H](O)C2(F)F)c(=O)n1` [Lipo-N-Gem], the Cytotoxicity entry was “dose-dependent” in data set [2], “slightly more efficient” in data set [3] and “slightly more efficient” in data set [4].

Consider `CC(=O)O[C@H]1C(=O)[C@@]2(C)[C@H]([C@H](OC(=O)c3ccccc3)[C@]3(O)C[C@H](OC(=O)[C@H](O)[C@@H](NC(=O)c4ccccc4)c4ccccc4)C(C)=C1C3(C)C)[C@]1(OC(C)=O)CO[C@@H]1C[C@@H]2O` [paclitacel, paclitaxel, reference compound], for which the Cytotoxicity result in data set [2], in data set [3] and in data set [4] was “slightly higher” throughout.

These data come from patent EP3679952A1, “NANOEMULSIONS ENCAPSULATING PRODRUGS” (Université de Strasbourg, priority 2019, dated 2020).
